Data as given in US11324726B2, “Small molecular Stemazole for promoting stem cell clonal formation and applications thereof” (BEIJING NORMAL UNIVERSITY, priority 2016, dated 2022).

How the values were obtained:
[1] = system: human hippocampal neurosphere stem cells; assay: Cell viability assay (ATP) of neurosphere stem cells (Example 6); format: cell-based; conditions: series concentrations, 4 days; maximum increase versus DMSO control
Procedure: 1) On a superclean bench and under sterile conditions, human embryo hippocampus was taken out;
2) After envelope and blood vessels were removed under a dissecting microscope, tissue obtained was rinsed with pre-cooled PBS at 4° C. 3-5 times, leaving a very small amount of PBS;
3) The tissue was cut into pieces using ophthalmic scissors, and about 5 ml of culture medium was added to suspend the tissue pieces, and then the obtained cell suspension was gently pipetted to achieve single cell state with a pipette tip;
4) The cell suspension was filtered through a 40 μm pore size cell sieve;
5) Cell density was regulated to 1×10^6/ml, and then the cells were inoculated into a […] glass culture flask;
6) The cells in the flask were cultured in a 37° C., 5% CO2 cell culture incubator.
The human hippocampal neurosphere stem cells were mechanically pipetted into small clones, regulated into a suitable density, and inoculated into a 96-well, black-wall plate at about 50 neurospheres/110 μL cell suspension/well. […] Without changing the medium, ATP was added at 20 μL/well after the compound acted for 4 days or other time, and the viability of cells was detected.

[2] = system: human embryonic stem cell strain H9 cells; assay: Single cell clone formation in single-cell culture, alkaline phosphatase and OCT-4 staining (Example 1); format: cell-based; conditions: 100 μM; for number of clones of alkaline phosphatase positive cells: H9 single cells on MEF feeder
Procedure: Alkaline Phosphatase Staining—
1) Rinsing cells with PBS, 3 times;
2) Fixing the cell with 4% paraformaldehyde for 10 minutes;
3) Washing with PBS, 3 times;
4) Preparing alkaline phosphatase staining agent:solution A:solution B:solution C=10 μl:10 μl:1 ml;
5) Adding the alkaline phosphatase staining agent to cover the cells, and staining for 20 minutes at room temperature in dark;
6) Aspirating off the staining agent, rinsing with PBS 3 times, storing the cells in PBS, and observing staining under a microscope.
Immunofluorescence Staining—
After being digested into single cells, human embryonic stem cell strain H9 cells were divided into two groups as follows, and inoculated on low density MEF feeder layer cells in 96-well plates:
(§1) Experiment group (ST group): complete medium+Stemazole dissolved in DMSO at a final concentration in the culture medium of 100 μM;
Control group (DMSO group): complete medium+DMSO with an amount corresponding to the experiment group.
The cell ratio of each well in the two groups was H9 cell/100 MEF cells, and the medium was supplemented once every 4 days.
Alkaline phosphatase staining was performed on day 4 and day 8. The results are shown in FIG. 1A: the number and sizes of the clones formed by the H9 cells in the DMSO group were less and smaller, while the number and sizes of the clones formed in ST group were higher and larger. […] The number of clones of alkaline phosphatase positive cells in the DMSO group averaged about 12 on day 8, and the number of clones of the alkaline phosphatase positive cells in the ST group averaged about 23, and the difference between the number of the clones in the two groups was significant. As to the size, the diameter of the alkaline phosphatase positive cells in the DMSO group on day 4 averaged about 50 microns, and the diameter of the alkaline phosphatase positive cells in the ST group averaged about 100 microns. There was no significant difference between the sizes of the clones in the two groups. The diameter of the alkaline phosphatase positive cells in the DMSO group on day 8 averaged about 70 microns, and the diameter of the alkaline phosphatase positive cells in the ST group averaged about 200 microns. There was a significant difference between the sizes of the clones in the two groups.
OCT-4 immunofluorescence staining was performed on day 1 and day 8.

[3] = system: Human embryonic stem cell line H9 cells; assay: Apoptosis in single-cell culture, Annexin V/PI flow cytometry (Example 2); format: cell-based; conditions: day 2 of inoculation; Stemazole 100 μM, Y27632 10 μM; DMSO group 54.1%
Procedure: Human embryonic stem cell line H9 cells were digested into single cells, divided into 3 groups as follows, and then inoculated at a low density on low-density MEF feeder layer cells in 6-well plates:
Experiment group (ST group): complete medium+Stemazole dissolved in DMSO at a concentration in the final culture medium of 100 μM;
Negative control group (DMSO group): complete medium+DMSO at an amount corresponding to the experiment group;
Positive control group (Y27632 group): complete medium+Y27632 dissolved in DMSO at a concentration in the final culture medium of 10 μM.
The cell ratio of each well of the three groups was 10 H9 cells/1 MEF cell.
Apoptosis was detected by flow cytometry using the specific apoptosis assay kit Annexin V/PI on day 2 of inoculation.

[4] = system: Human embryonic stem cell line H9 cells; assay: Apoptosis during total nutrient removal culture, Annexin V/PI flow cytometry (Example 3); format: cell-based; conditions: total nutrient removal for 15 hours; 100 μM; DMSO group about 43%, normal culture about 0.4%
Procedure: After passaged, human embryonic stem cell line H9 cells were divided into the following two groups and inoculated in 6-well plates:
Experiment group (ST group): total nutrient removal culture medium (complete medium with removal of serum and growth factor)+Stemazole dissolved in DMSO at a final concentration in the culture medium of 100 μM;
Control group (DMSO group): total nutrient removal culture medium+DMSO with an amount corresponding to the experiment group;
(§2) Normal culture group: complete medium.
Apoptosis was detected by flow cytometry using the specific apoptosis assay kit Annexin V/PI.

[5] = system: Human embryonic stem cell strain H1-9 cells; assay: Number of cells as a function of culture time in single-cell culture (Example 4); format: cell-based; conditions: 100 μM; complete medium; single-cell culture on MEF feeder
Procedure: Human embryonic stem cell strain H1-9 cells were digested into single cells, then divided into following three groups and inoculated on low-density MEF feeder layer cells in 6-well plates:
as §1
Control group (DMSO group): complete medium+DMSO with the amount corresponding to the experiment group;
as §2
The cells in each well of the three groups were maintained well grown on the MEF feeder layer cells, and the medium was supplemented once every 4 days.

[6] = system: H9 cells; assay: Expression of stem cell markers after total nutrient removal culture, quantitative PCR and immunofluorescence (Example 5 I); format: cell-based, human; conditions: 15 hours total nutrient removal culture; 100 μM
Procedure: Following the experimental method in Example 3, H9 cells were divided into experiment group (ST group) and control group (DMSO group) and cultured. After 15 hours of total nutrient removal culture, the expression of each of human embryonic stem cells' important markers OCT-4, Sox2, FDF4, KLF4, REX1, and Nanog was detected by quantitative PCR.
Ct (Cycle threshold) of each sample was measured by calculating 2^−^ΔΔ^Ct, to compare differential expression of specific gene between different samples. In order to reduce systematic error and sampling error, triplicate wells in parallel were set for each sample. The average value of the triplicate wells was taken as the Ct of the sample, and then 2^−^ΔΔ^Ct was calculated according to the formulas below. […]
In addition, still following the experimental method in Example 3, 1H9 cells were divided into experiment group (ST group), control group (DMSO group) and normal culture group and cultured. After total nutrient removal culture for 15 hours, the expression of each of human embryonic stem cells' important markers OCT-4 and E-Cadherin was detected by immunofluorescence staining.

[7] = system: H9 cells; assay: Ki67 proliferation marker immunofluorescence after total nutrient removal culture (Example 5 II); format: cell-based, human; conditions: 15 hours total nutrient removal culture; 100 μM
Procedure: Following the experimental method in Example 3, H9 cells were divided into experiment group (ST group), control group (DMSO group) and normal culture group and cultured. After total nutrient removal culture for 15 hours, immunofluorescence staining of the H9 cells was conducted for Ki67 (a proliferation marker).

[8] = system: H9 cells; assay: Embryoid body formation in total nutrient removal culture (Example 5 III); format: cell-based, human; conditions: measured at the 15th hour, 100 μM, compared to DMSO group
Procedure: Following the experimental method in Example 3, H9 cells were divided into experiment group (ST group), control group (DMSO group) and normal culture group and cultured. The formation of EBs was observed under a microscope at the 15th hour, and on day 2 and day 4 of total nutrient removal culture respectively, and the diameter and number of EBs were measured at the 15th hours.

[9] = system: H9 cells; assay: Induced differentiation into endoderm, mesoderm and ectoderm cells, marker expression (Example 5 IV); format: cell-based, human; conditions: nutrient starving 15 hours, then 4 days differentiation medium; 100 μM
From the text: Following the experimental method in Example 3, H9 cells were divided into experiment group (ST group), control group (DMSO group) and normal culture group and cultured.
The H9 cells were digested by Collagenase IV, washed with DMEM (high glucose) 3 times, and gently blown into small cell clusters, then were inoculated into 100 mm petri dishes with the culture medium changed into differentiation culture medium (DMEM/F12, 20% FBS, 1× non-essential amino acid, 1×sodium pyruvate, 1×β-mercaptoethanol, double antibiotics, and 2 mM glutamine). The medium was changed every 2 days, and the dishes were observed on each day. After 4 days, RNA was extracted and the differentiation ability of the H9 cells to endoderm, mesoderm and ectoderm cells was detected.

SMILES	cell viability increase over the control group [1]	OCT-4 immunofluorescence staining, single cell growth into monoclonal cells ([2]; day 1 and day 8)	diameter of the alkaline phosphatase positive cells (clone size) ([2]; day 4, DMSO group about 50)	number of clones of alkaline phosphatase positive cells ([2]; day 4, DMSO group about 8)	diameter of the alkaline phosphatase positive cells (clone size) ([2]; day 8, DMSO group about 70)	number of clones of alkaline phosphatase positive cells ([2]; day 8, DMSO group about 12)	Annexin V positive apoptotic cells [3] [%]	apoptosis rate [4]	number of cells as a function of time [5]	expression of markers OCT-4, Sox2, FDF4, KLF4, REX1, Nanog by quantitative PCR [6]	expression of markers OCT-4 and E-Cadherin by immunofluorescence staining [6]	expression of proliferation marker Ki67 [7]	formation of EBs, diameter and number [8]	expression of ectoderm marker GFAP [9]	expression of ectoderm marker Pax6 [9]	expression of mesoderm marker MSX1 [9]
NNC(=S)Nc1ccc(-c2nnc(S)o2)cc1Br [Br-Stemazole, 4-(2-br-4-(5-mercapto-1,3,4-oxadiazole-2-yl)phenyl)thiosemicarbazide]	up to 2.1 times	–	–	–	–	–	–	–	–	–	–	–	–	–	–	–
NNC(=S)Nc1ccc(-c2nnc(S)o2)cc1 [Stemazole, 4-(4-(5-mercapto-1,3,4-oxadiazole-2-yl)phenyl)thiosemicarbazide]	up to 2.7 times	single cells had grown into monoclonal cells	about 100 microns	about 18	about 200 microns	about 23	25.2	about 8%	did not increase	maintained the stem cell characteristics	maintained the stem cell characteristics	maintained the proliferation ability	more EBs with larger diameter	comparable to that of the normal control group cells	higher than that of normal control group cells	higher than that of normal control group cells
C[C@@H](N)[C@H]1CC[C@H](C(=O)Nc2ccncc2)CC1 [Y27632, 4-[(1R)-1-aminoethyl]-N-(pyridine-4-yl)cyclohexane-1-carboxamide, reference compound]	–	–	–	–	–	–	20.1	–	–	–	–	–	–	–	–	–
